Assay results published in patent US11802120B2, “Fused cyclic urea derivatives as CRHR2 antagonist” (RaQualia Pharma Inc., priority 2018, dated 2023).

target: T1, human CRHR2-alpha (Homo sapiens, UniProt Q13324); assay: cAMP functional assay for human CRHR2 (LANCE Ultra cAMP, TR-FRET); assay type: cell-based; conditions: CHO-K1 cells expressing human CRHR2-alpha, agonist human urocortin2 at EC80, cAMP; read-out: IC50 against CRHR2
T1 sequence (Q13324 1-411): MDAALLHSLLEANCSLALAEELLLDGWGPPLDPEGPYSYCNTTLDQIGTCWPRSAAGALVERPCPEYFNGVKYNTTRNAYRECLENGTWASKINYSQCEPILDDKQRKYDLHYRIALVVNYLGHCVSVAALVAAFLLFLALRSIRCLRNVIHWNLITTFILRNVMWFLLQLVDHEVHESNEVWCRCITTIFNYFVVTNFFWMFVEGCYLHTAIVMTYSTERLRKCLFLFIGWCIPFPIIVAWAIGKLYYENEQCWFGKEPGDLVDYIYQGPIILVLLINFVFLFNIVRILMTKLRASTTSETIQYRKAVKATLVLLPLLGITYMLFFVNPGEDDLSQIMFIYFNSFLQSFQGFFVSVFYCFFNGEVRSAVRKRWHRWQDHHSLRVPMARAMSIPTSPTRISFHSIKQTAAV
In short: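 Inhibition of agonist-driven cAMP was assessed in recombinant CHO-K1 cells at 25° C, using 30 min compound pretreatment and 30 min stimulation with EC80 human urocortin2 (CRHR2) or CRF (CRHR1). IC50 came from dose-response fitting.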

IC50 | SMILES
< 0.3 µM | Cc1ncc(Cl)cc1C(=O)N[C@H]1CC[C@H](Cn2c(=O)n(-c3ccc(-n4nccn4)nc3)c3ccccc32)CC1 [Example 512, N-((1r,4r)-4-((3-(6-(2H-1,2,3-triazol-2-yl)pyridin-3-yl)-2-oxo-2,3-dihydro-1H-benzo[d]imidazol-1-yl)methyl)cyclohexyl)-5-chloro-2-methylnicotinamide]
< 0.3 µM | Cc1ncc(Cl)cc1C(=O)N[C@H]1CC[C@H](Cn2c(=O)n(C3CCN(c4cccnc4)CC3)c3ccccc32)CC1 [Example 513, 5-chloro-2-methyl-N-((1r,4r)-4-((2-oxo-3-(1-(pyridin-3-yl)piperidin-4-yl)-2,3-dihydro-1H-benzo [d]imidazol-1-yl)methyl)cyclohexyl)nicotinamide]
< 0.3 µM | CC(C)Nc1ccc(-n2c(=O)n(C[C@H]3CC[C@H](NC(=O)c4cc(Cl)cnc4C(F)F)CC3)c3ccccc32)cn1 [Example 514, 5-chloro-2-(difluoromethyl)-N-((1r,4r)-4-((3-(6-(iso-propylamino)pyridin-3-yl)-2-oxo-2,3-dihydro-1H-benzo [d]imidazol-1-yl)methyl)cyclohexyl)nicotinamide]
< 0.3 µM | CC(F)(F)CNc1ccc(-n2c(=O)n(C[C@H]3CC[C@H](NC(=O)c4cc(Cl)cnc4C(F)F)CC3)c3ccccc32)cn1 [Example 515, 5-chloro-2-(difluoromethyl)-N-((1r,4r)-4-((3-(6-((2,2-difluoropropyl)amino)pyridin-3-yl)-2-oxo-2,3-dihydro-1H-benzo[d]imidazol-1-yl)methyl)cyclohexyl)nicotinamide]
< 0.3 µM | Cc1ncc(Cl)cc1C(=O)N[C@H]1CC[C@H](Cn2c(=O)n(-c3cccc(-c4ncco4)c3)c3ccccc32)CC1 [Example 516, 5-chloro-2-methyl-N-((1r,4r)-4-((3-(3-(oxazol-2-yl)phenyl)-2-oxo-2,3-dihydro-1H-benzo [d]imidazol-1-yl)methyl)cyclo-hexyl)nicotinamide]
< 0.3 µM | Cc1ncc(Cl)cc1C(=O)N[C@H]1CC[C@H](Cn2c(=O)n(-c3cccc(-c4cncn4C)c3)c3ccccc32)CC1 [Example 517, 5-chloro-2-methyl-N-((1r,4r)-4-((3-(3-(1-methyl-1H-imidazol-5-yl)phenyl)-2-oxo-2,3-dihydro-1H-benzo[d]imidazol-1-yl)methyl)cyclohexyl)nicotinamide]
< 0.3 µM | Cc1ncc(Cl)cc1C(=O)N[C@H]1CC[C@H](Cn2c(=O)n(-c3ccc(-c4nccs4)cc3)c3ccccc32)CC1 [Example 518, 5-chloro-2-methyl-N-((1r,4r)-4-((2-oxo-3-(4-(thiazol-2-yl)phenyl)-2,3-dihydro-1H-benzo [d]imidazol-1-yl)methyl)cyclo-hexyl)nicotinamide]
< 0.3 µM | Cc1ncc(Cl)cc1C(=O)N[C@H]1CC[C@H](Cn2c(=O)n(-c3ccnc(N4CCOCC4)c3)c3ccccc32)CC1 [Example 519, 5-chloro-2-methyl-N-((1r,4r)-4-((3-(2-morpholinopyridin-4-yl)-2-oxo-2,3-dihydro-1H-benzo[d]imidazol-1-yl)methyl)cyclohexyl)nicotinamide]
< 0.3 µM | Cc1ncc(Cl)cc1C(=O)N[C@H]1CC[C@H](Cn2c(=O)n(-c3cccc(-n4ccnc4)n3)c3ccccc32)CC1 [Example 520, N-((1r,4r)-4-((3-(6-(1H-imidazol-1-yl)pyridin-2-yl)-2-oxo-2,3-dihydro-1H-benzo[d]imidazol-1-yl)methyl)cyclo-hexyl)-5-chloro-2-methyl-nicotinamide]
< 0.3 µM | Cc1ncc(Cl)cc1C(=O)N[C@H]1CC[C@H](Cn2c(=O)n(-c3ccnc(-c4cnco4)c3)c3ccccc32)CC1 [Example 521, 5-chloro-2-methyl-N-((1r,4r)-4-((3-(2-(oxazol-5-yl)pyridin-4-yl)-2-oxo-2,3-dihydro-1H-benzo[d]imidazol-1-yl)methyl)cyclohexyl)nicotinamide]
< 0.3 µM | CNc1ncc(-n2c(=O)n(C[C@H]3CC[C@H](NC(=O)c4cc(Cl)cnc4C)CC3)c3ccccc32)cc1Cl [Example 522, 5-chloro-N-((1r,4r)-4-((3-(5-chloro-6-(methylamino)pyridin-3-yl)-2-oxo-2,3-dihydro-1H-benzo[d]imidazol-1-yl)methyl)cyclohexyl)-2-methyl-nicotinamide]
< 0.3 µM | O=C(N[C@H]1CC[C@H](Cn2c(=O)n(-c3ccc(N4CCNC4=O)nc3)c3ccccc32)CC1)c1cc(Cl)cnc1C(F)F [Example 523, 5-chloro-2-(difluoromethyl)-N-((1r,4r)-4-((2-oxo-3-(6-(2-oxoimidazolidin-1-yl)pyridin-3-yl)-2,3-dihydro-1H-benzo[d]imidazol-1-yl)methyl)cyclohexyl)nicotinamide]
< 0.3 µM | CN1CCN(c2ccc(-n3c(=O)n(C[C@H]4CC[C@H](NC(=O)c5cc(Cl)cnc5C(F)F)CC4)c4ccccc43)cn2)C1=O [Example 524, 5-chloro-2-(difluoromethyl)-N-((1r,4r)-4-((3-(6-(3-methyl-2-oxoimidazolidin-1-yl)pyridin-3-yl)-2-oxo-2,3-dihydro-1H-benzo[d]imidazol-1-yl)methyl)cyclohexyl) nicotinamide]
< 0.3 µM | CNC(=O)c1ccc(-n2c(=O)n(C[C@H]3CC[C@H](NC(=O)c4cc(Cl)cnc4C(F)F)CC3)c3cccc(C)c32)cn1 [Example 527, 5-(3-(((1r,4r)-4-(5-chloro-2-(difluoromethyl)nicotinamido)cyclohexyl)methyl)-7-methyl-2-oxo-2,3-dihydro-1H-benzo [d]imidazol-1-yl)-N-methylpicolinamide]
< 0.3 µM | CNC(=O)c1ccc(-n2c(=O)n(C[C@H]3CC[C@H](NC(=O)c4cc(Cl)cnc4C(F)F)CC3)c3cc(OC)ccc32)cn1 [Example 528, 5-(3-(((1r,4r)-4-(5-chloro-2-(difluoromethyl)nicotinamido)cyclohexyl)methyl)-5-methoxy-2-oxo-2,3-dihydro-1H-benzo [d]imidazol-1-yl)-N-methylpicolinamide]
< 0.3 µM | CNC(=O)c1ccc(-n2c(=O)n(C[C@H]3CC[C@H](NC(=O)c4cc(Cl)cnc4C(F)F)CC3)c3cc(C)ccc32)cn1 [Example 529, 5-(3-(((1r,4r)-4-(5-chloro-2-(difluoromethyl)nicotinamido)cyclohexyl)methyl)-5-methyl-2-oxo-2,3-dihydro-1H-benzo [d]imidazol-1-yl)-N-methylpicolinamide]
< 0.3 µM | CNC(=O)c1ccc(-n2c(=O)n(C[C@H]3CC[C@H](NC(=O)c4cc(Cl)cnc4C(F)F)CC3)c3cc(F)ccc32)cn1 [Example 530, 5-(3-(((1r,4r)-4-(5-chloro-2-(difluoromethyl)nicotinamido)cyclohexyl)methyl)-5-fluoro-2-oxo-2,3-dihydro-1H-benzo [d]imidazol-1-yl)-N-methylpicolinamide]
< 0.3 µM | CNC(=O)c1ccc(-n2c(=O)n(C[C@H]3CC[C@H](NC(=O)c4cc(Cl)ccc4OC(F)(F)F)CC3)c3ccccc32)cn1 [Example 531, 5-(3-(((1r,4r)-4-(5-chloro-2-(trifluoromethoxy)benzamido)cyclohexyl)methyl)-2-oxo-2,3-dihydro-1H-benzo[d]imidazol-1-yl)-N-methyl-picolinamide]
< 0.3 µM | CNC(=O)c1ccc(-n2c(=O)n(C[C@H]3CC[C@H](NC(=O)c4cc(C(F)(F)F)ccc4C)CC3)c3ccccc32)cn1 [Example 532, N-methyl-5-(3-(((1r,4r)-4-(2-methyl-5-(trifluoromethyl)benzamido)cyclohexyl)methyl)-2-oxo-2,3-dihydro-1H-benzo[d]imidazol-1-yl) picolinamide]
